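Growth conditions: 96-well plates. Treatment: test compound, 48 hours, 5 concentrations. Analysis: linear interpolation between bracketing concentrations; unreached endpoints set to highest concentration. The concentration for full growth arrest is given as TGI.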
How the values were obtained:
Assay in all cases: growth of human tumour cells (NCI), 48 h
SR leukemia = test system: SR leukemia
DLD-1 colon = test system: DLD-1 colon
SN12C renal = test system: SN12C renal
M19-MEL melanoma = test system: M19-MEL melanoma
MOLT-4 leukemia = test system: MOLT-4 leukemia
OVCAR-4 ovarian = test system: OVCAR-4 ovarian
KM20L2 colon = test system: KM20L2 colon
UACC-62 melanoma = test system: UACC-62 melanoma
NCI-H226 lung = test system: NCI-H226 lung
LOX IMVI melanoma = test system: LOX IMVI melanoma
KM12 colon = test system: KM12 colon
OVCAR-8 ovarian = test system: OVCAR-8 ovarian
SW-620 colon = test system: SW-620 colon
TK-10 renal = test system: TK-10 renal
SK-OV-3 ovarian = test system: SK-OV-3 ovarian
XF 498 CNS = test system: XF 498 CNS
SNB-78 CNS = test system: SNB-78 CNS
OVCAR-5 ovarian = test system: OVCAR-5 ovarian
MALME-3M melanoma = test system: MALME-3M melanoma
A498 renal = test system: A498 renal
A549 NSCLC = test system: A549 NSCLC
DMS 273 small cell lung = test system: DMS 273 small cell lung
SF-268 CNS = test system: SF-268 CNS
NCI-H23 lung = test system: NCI-H23 lung
SF-295 CNS = test system: SF-295 CNS
CAKI-1 renal = test system: CAKI-1 renal
IGROV1 ovarian = test system: IGROV1 ovarian
RXF 393 renal = test system: RXF 393 renal
U251 CNS = test system: U251 CNS
CCRF-CEM leukemia = test system: CCRF-CEM leukemia
RXF-631 renal = test system: RXF-631 renal
786-0 renal = test system: 786-0 renal
HOP-62 NSCLC = test system: HOP-62 NSCLC
NCI-H460 lung = test system: NCI-H460 lung
SNB-19 CNS = test system: SNB-19 CNS
SNB-75 CNS = test system: SNB-75 CNS
HCT-15 colon = test system: HCT-15 colon
HOP-92 NSCLC = test system: HOP-92 NSCLC
HT29 colon = test system: HT29 colon
HCT-116 colon = test system: HCT-116 colon
SK-MEL-5 melanoma = test system: SK-MEL-5 melanoma
K-562 leukemia = test system: K-562 leukemia
NCI-H522 lung = test system: NCI-H522 lung
M14 melanoma = test system: M14 melanoma
EKVX NSCLC = test system: EKVX NSCLC
COLO 205 colon = test system: COLO 205 colon
SF-539 CNS = test system: SF-539 CNS
UACC-257 melanoma = test system: UACC-257 melanoma
HL-60(TB) leukemia = test system: HL-60(TB) leukemia
UO-31 renal = test system: UO-31 renal
DMS 114 small cell lung = test system: DMS 114 small cell lung
RPMI-8226 leukemia = test system: RPMI-8226 leukemia
SK-MEL-2 melanoma = test system: SK-MEL-2 melanoma
OVCAR-3 ovarian = test system: OVCAR-3 ovarian
SK-MEL-28 melanoma = test system: SK-MEL-28 melanoma
HCC-2998 colon = test system: HCC-2998 colon
LXFL 529 NSCLC = test system: LXFL 529 NSCLC

Measured: TGI

O=C1C(c2ccccc2)=C(c2ccccc2)C(c2ccc(Sc3ccc(C4=C(c5ccccc5)C(=O)C(c5ccccc5)=C4c4ccccc4)cc3)cc2)=C1c1ccccc1
> 100 µM: SR leukemia | DLD-1 colon | SN12C renal | M19-MEL melanoma | MOLT-4 leukemia | OVCAR-4 ovarian | KM20L2 colon | UACC-62 melanoma | NCI-H226 lung | LOX IMVI melanoma | KM12 colon | OVCAR-8 ovarian | SW-620 colon | TK-10 renal | SK-OV-3 ovarian | XF 498 CNS | SNB-78 CNS | OVCAR-5 ovarian | MALME-3M melanoma | A498 renal | A549 NSCLC | DMS 273 small cell lung | SF-268 CNS | NCI-H23 lung | SF-295 CNS | CAKI-1 renal | IGROV1 ovarian | RXF 393 renal | U251 CNS | CCRF-CEM leukemia | RXF-631 renal | 786-0 renal | HOP-62 NSCLC | NCI-H460 lung | SNB-19 CNS | HCT-15 colon | HOP-92 NSCLC | HT29 colon | HCT-116 colon | SK-MEL-5 melanoma | K-562 leukemia | NCI-H522 lung | M14 melanoma | EKVX NSCLC | COLO 205 colon | SF-539 CNS | UACC-257 melanoma | HL-60(TB) leukemia | UO-31 renal | DMS 114 small cell lung | RPMI-8226 leukemia | SK-MEL-2 melanoma | OVCAR-3 ovarian
76.5 µM: SNB-75 CNS

O=C(O)c1ccc([C@@H]2C(=O)N(O)[C@@H]3C=CC[C@@H]32)cc1
> 100 µM: DLD-1 colon | SN12C renal | M19-MEL melanoma | MOLT-4 leukemia | UACC-62 melanoma | NCI-H226 lung | LOX IMVI melanoma | KM12 colon | OVCAR-8 ovarian | SW-620 colon | TK-10 renal | SK-OV-3 ovarian | XF 498 CNS | SNB-78 CNS | MALME-3M melanoma | A549 NSCLC | DMS 273 small cell lung | SF-268 CNS | NCI-H23 lung | SF-295 CNS | CAKI-1 renal | IGROV1 ovarian | RXF 393 renal | CCRF-CEM leukemia | SK-MEL-28 melanoma | RXF-631 renal | 786-0 renal | HOP-62 NSCLC | HCC-2998 colon | SNB-19 CNS | SNB-75 CNS | HCT-15 colon | HT29 colon | SK-MEL-5 melanoma | K-562 leukemia | NCI-H522 lung | M14 melanoma | EKVX NSCLC | COLO 205 colon | SF-539 CNS | UACC-257 melanoma | HL-60(TB) leukemia | UO-31 renal | DMS 114 small cell lung | RPMI-8226 leukemia | SK-MEL-2 melanoma | LXFL 529 NSCLC | OVCAR-3 ovarian
